This passage reports inhibition results from publication PMC6934184, “Selective DNA-PKcs inhibition extends the therapeutic index of localized radiotherapy and chemotherapy” (The Journal of Clinical Investigation, 2019).

The structures appear in SMILES notation.

This assay concerns the target T1, AURKC (Aurora C) (Homo sapiens, UniProt Q9UQB9).
T1 construct: purchased Thermo Fisher Scientific (Life Technologies) SelectScreen
Description: SelectScreen Z'LYTE. Format: biochemical. In short, it runs like this: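 NU5455 was profiled across the SelectScreen Broad panel of kinase activity and binding assays. Z'LYTE reactions such as CSF1R ran at apparent Km ATP, while the Adapta CAMK1 assay used ATP listed as 10. Values are given as percent.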

T1 sequence (Q9UQB9 whole entry): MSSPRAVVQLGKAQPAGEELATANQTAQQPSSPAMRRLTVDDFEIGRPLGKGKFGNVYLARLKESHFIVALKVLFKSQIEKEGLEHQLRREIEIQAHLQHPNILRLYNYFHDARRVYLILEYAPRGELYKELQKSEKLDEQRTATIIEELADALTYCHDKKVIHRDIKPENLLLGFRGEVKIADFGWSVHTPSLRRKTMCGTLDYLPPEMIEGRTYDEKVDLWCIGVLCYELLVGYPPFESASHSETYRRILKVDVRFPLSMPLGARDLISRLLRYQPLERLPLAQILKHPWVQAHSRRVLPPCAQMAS

As for `CN(C(=O)CN1CCOCC1)c1ccc2sc3c(-c4cccc5c(=O)cc(N6CC7CCC(C6)O7)oc45)cccc3c2c1` [NU5455], the inhibition (as a rule, the drop in the measured response relative to a control, in per cent) at 1 µM is -5.4%.
